Experiments:
CK1ε = CK1ε (Homo sapiens (Human), UniProt P49674); assay: CK1ε kinase assay (Caliper LABCHIP electrophoretic separation of fluoresceinated peptide substrate and product); assay type: biochemical; details: 200 pM CK1ε, 50 μM ATP, 1.5 μM peptide substrate, 22 hours at room temperature; read-out: CK1ε (IC50)
How it was run: (§1)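 Kinase reactions ran 22 h at room temperature, were stopped with EDTA, and phosphorylated product was separated electrophoretically from unphosphorylated fluoresceinated peptide. Compounds were tested at eleven concentrations from 10 mM DMSO stocks. IC50 by non-linear regression.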

CK1δ = CK1δ (Homo sapiens (Human), UniProt P48730); assay: CK1δ kinase assay (Caliper LABCHIP electrophoretic separation of fluoresceinated peptide substrate and product); assay type: biochemical; details: 200 pM CK1δ, 50 μM ATP, 1.5 μM peptide substrate, 22 hours at room temperature; read-out: CK1δ (IC50)
How it was run: as §1

Sequence of CK1ε (P49674 whole entry): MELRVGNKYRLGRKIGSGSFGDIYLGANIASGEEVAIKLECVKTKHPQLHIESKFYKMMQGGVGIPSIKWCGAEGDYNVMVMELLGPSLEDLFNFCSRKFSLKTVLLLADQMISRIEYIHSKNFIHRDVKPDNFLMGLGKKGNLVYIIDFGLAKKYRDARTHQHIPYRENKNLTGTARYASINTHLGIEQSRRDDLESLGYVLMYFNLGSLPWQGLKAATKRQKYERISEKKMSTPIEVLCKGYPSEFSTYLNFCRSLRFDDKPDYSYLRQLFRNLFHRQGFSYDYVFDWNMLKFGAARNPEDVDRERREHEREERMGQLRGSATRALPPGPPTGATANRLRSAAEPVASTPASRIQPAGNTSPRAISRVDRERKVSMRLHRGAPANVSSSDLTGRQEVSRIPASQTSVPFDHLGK
Sequence of CK1δ (P48730 whole entry): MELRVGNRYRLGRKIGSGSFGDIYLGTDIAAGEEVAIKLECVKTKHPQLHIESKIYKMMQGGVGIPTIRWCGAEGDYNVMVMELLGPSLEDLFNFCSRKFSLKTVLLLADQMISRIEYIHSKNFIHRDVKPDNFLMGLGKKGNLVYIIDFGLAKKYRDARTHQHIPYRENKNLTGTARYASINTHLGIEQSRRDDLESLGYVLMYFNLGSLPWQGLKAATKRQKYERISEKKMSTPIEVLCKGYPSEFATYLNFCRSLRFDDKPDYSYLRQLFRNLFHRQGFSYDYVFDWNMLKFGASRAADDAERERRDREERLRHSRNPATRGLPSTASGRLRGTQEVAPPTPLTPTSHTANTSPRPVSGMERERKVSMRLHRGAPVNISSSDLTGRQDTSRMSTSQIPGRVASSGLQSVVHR

| Structure (SMILES) | IC50 (CK1ε) | IC50 (CK1δ) |
| --- | --- | --- |
| CC(C)(C)c1cc(NC(=O)N2CCn3nc(-c4ccc(F)c(Cl)c4)c(C(N)=O)c3C2)ccc1C#N [Compound A51, N^5-(3-(tert-Butyl)-4-cyanophenyl)-2-(3-chloro-4-fluorophenyl)-6,7-dihydropyrazolo[1,5-a]pyrazine-3,5(4H)-dicarboxamide] | 0.01 to 10 nM | 0.01 to 10 nM |
| Cc1cccc(-c2nn3c(c2C(N)=O)CN(C(=O)Nc2ccc(C#N)cc2)CC3)c1 [Compound 289, N^5-(4-Cyanophenyl)-2-(m-tolyl)-6,7-dihydropyrazolo [1,5-a]pyrazine-3,5(4H)-dicarboxamide] | 0.01 to 10 nM | 0.01 to 10 nM |
| NC(=O)c1c(-c2ccc(F)c(Cl)c2)nn2c1CN(C(=O)Nc1cccc(F)c1)CC2 [Compound 186, 2-(3-Chloro-4-fluorophenyl)-N^5-(3-fluorophenyl)-6,7-dihydropyrazolo[1,5-a] pyrazine-3,5(4H)-dicarboxamide] | 0.01 to 10 nM | 0.01 to 10 nM |
| NC(=O)c1c(-c2cccc(Cl)c2)nn2c1CN(C(=O)Nc1ccc(F)cc1)CC2 [Compound 157, 2-(3-Chlorophenyl)-N^5-(4-fluorophenyl)-6,7-dihydropyrazolo[1,5-a]pyrazine-3,5(4H)-dicarboxamide] | 0.01 to 10 nM | 0.01 to 10 nM |
| N#Cc1ccc(NC(=O)N2CCn3nc(-c4cccc(OC(F)(F)F)c4)c(C(N)=O)c3C2)cc1 [Compound 284, N^5-(4-Cyanophenyl)-2-(3-(trifluoromethoxy)phenyl)-6,7-dihydropyrazolo[1,5-a] pyrazine-3,5(4H)-dicarboxamide] | 10 to 100 nM | 10 to 100 nM |
| COc1cc(NC(=O)N2CCn3nc(-c4cccc(F)c4)c(C(N)=O)c3C2)cc(OC)c1 [Compound 56, N^5-(3,5-Dimethoxyphenyl)-2-(3-fluorophenyl)-6,7-dihydropyrazolo[1,5-a]pyrazine-3,5(4H)-dicarboxamide] | 0.01 to 10 nM | 0.01 to 10 nM |
| NC(=O)c1c(-c2cccc(F)c2)nn2c1CN(C(=O)NC13CC4CC(O)(CC(F)(C4)C1)C3)CC2 (stereo not shown) [Compound 94, N^5-(3-Fluoro-5-hydroxyadamantan-1-yl)-2-(3-fluorophenyl)-6,7-dihydropyrazolo[1,5-a]pyrazine-3,5(4H)-dicarboxamide] | 0.01 to 10 nM | 0.01 to 10 nM |
| Cc1cc(NC(=O)N2CCn3nc(-c4cccc(Cl)c4)c(C(N)=O)c3C2)ccc1C#N [Compound A38, 2-(3-Chlorophenyl)-N^5-(4-cyano-3-methylphenyl)-6,7-dihydropyrazolo[1,5-a]pyrazine-3,5(4H)-dicarboxamide] | 0.01 to 10 nM | 0.01 to 10 nM |
| N#Cc1ccc(NC(=O)N2CCn3nc(-c4ccc(F)c(Cl)c4)c(C(=O)NC4CC4)c3C2)cc1 [Compound A65, 2-(3-Chloro-4-fluorophenyl)-N^5-(4-cyanophenyl)-N^3-cyclopropyl-6,7-dihydropyrazolo[1,5-a]pyrazine-3,5(4H)-dicarboxamide] | 100 to 2000 nM | 100 to 2000 nM |
| N#Cc1ccc(NC(=O)N2Cc3c(C(N)=O)c(-c4ccc(F)c(Cl)c4)nn3CC2C(F)(F)F)cc1 (single isomer, unassigned) [Compound 336, 2-(3-Chloro-4-fluorophenyl)-N^5-(4-cyanophenyl)-6-(trifluoromethyl)-6,7-dihydropyrazolo[1,5-a]pyrazine-3,5(4H)-dicarboxamide] | 0.01 to 10 nM | 0.01 to 10 nM |
| Cc1cc(C)cc(-c2nn3c(c2C(N)=O)CN(C(=O)Nc2ccc(C#N)cc2)CC3)c1 [Compound 275, N^5-(4-Cyanophenyl)-2-(3,5-dimethylphenyl)-6,7-dihydropyrazolo[1,5-a] pyrazine-3,5(4H)-dicarboxamide] | 0.01 to 10 nM | 0.01 to 10 nM |
| N#Cc1ccc(NC(=O)N2CCn3nc(-c4cnc(F)c(Cl)c4)c(C(N)=O)c3C2)cc1 [Compound 293, 2-(5-Chloro-6-fluoropyridin-3-yl)-N^5-(4-cyanophenyl)-6,7-dihydropyrazolo[1,5-a] pyrazine-3,5(4H)-dicarboxamide] | 0.01 to 10 nM | 0.01 to 10 nM |
| N#Cc1ccc(NC(=O)N2Cc3c(C(N)=O)c(-c4ccc(F)c(Cl)c4)nn3CC2C(F)(F)F)cc1 (single isomer, unassigned) [Compound 335, 2-(3-Chloro-4-fluorophenyl)-N^5-(4-cyanophenyl)-6-(trifluoromethyl)-6,7-dihydropyrazolo[1,5-a]pyrazine-3,5(4H)-dicarboxamide] | 100 to 2000 nM | 100 to 2000 nM |
| NC(=O)c1c(-c2cc(Cl)c(F)c(Cl)c2)nn2c1CN(C(=O)Nc1ccc(F)c(F)c1)CC2 [Compound 260, 2-(3,5-Dichloro-4-fluorophenyl)-N^5-(3,4-difluorophenyl)-6,7-dihydropyrazolo[1,5-a] pyrazine-3,5(4H)-dicarboxamide] | 0.01 to 10 nM | 0.01 to 10 nM |
| NC(=O)c1c(-c2ccc(F)c(Cl)c2)nn2c1CN(C(=O)Nc1cccc(F)c1F)CC2 [Compound 191, 2-(3-Chloro-4-fluorophenyl)-N^5-(2,3-difluorophenyl)-6,7-dihydropyrazolo[1,5-a] pyrazine-3,5(4H)-dicarboxamide] | 0.01 to 10 nM | 0.01 to 10 nM |
| Cc1cc(NC(=O)N2CCn3nc(-c4ccc(F)c(Cl)c4)c(C(N)=O)c3C2)ccc1C#N [Compound A48, 2-(3-Chloro-4-fluorophenyl)-N^5-(4-cyano-3-methylphenyl)-6,7-dihydropyrazolo[1,5-a]pyrazine-3,5(4H)-dicarboxamide] | 0.01 to 10 nM | 0.01 to 10 nM |
| N#Cc1ccc(NC(=O)N2CCn3nc(-c4cc(Cl)c5[nH]ncc5c4)c(C(N)=O)c3C2)cc1F [Compound 316, 2-(7-Chloro-1H-indazol-5-yl)-N^5-(4-cyano-3-fluorophenyl)-6,7-dihydropyrazolo[1,5-a]pyrazine-3,5(4H)-dicarboxamide] | 0.01 to 10 nM | 0.01 to 10 nM |
| NC(=O)c1c(-c2ccc(Cl)c(Cl)c2)nn2c1CN(C(=O)Nc1ccc(Cl)c(Cl)c1)CC2 [Compound 209] | 0.01 to 10 nM | 0.01 to 10 nM |
| Cc1cc(-c2nn3c(c2C(N)=O)CN(C(=O)Nc2ccc(C#N)c(C(F)(F)F)c2)CC3)ccc1F [Compound 245, N^5-(4-Cyano-3-(trifluoromethyl)phenyl)-2-(4-fluoro-3-methylphenyl)-6,7-dihydropyrazolo[1,5-a] pyrazine-3,5(4H)-dicarboxamide] | 0.01 to 10 nM | 0.01 to 10 nM |
| Cc1cc(NC(=O)N2CCn3nc(-c4cc(Cl)c5ocnc5c4)c(C(N)=O)c3C2)ccc1C#N [Compound 310, 2-(7-Chlorobenzo[d]oxazol-5-yl)-N^5-(4-cyano-3-methylphenyl)-6,7-dihydropyrazolo[1,5-a]pyrazine-3,5(4H)-dicarboxamide] | 0.01 to 10 nM | 0.01 to 10 nM |
| NC(=O)c1c(-c2cccc(F)c2)nn2c1CN(C(=O)NC13CC4CC(CC(C4)C1)C3)CC2 [Compound 22, N^5-(Adamantan-1-yl)-2-(3-fluorophenyl)-6,7-dihydropyrazolo[1,5-a]pyrazine-3,5(4H)-dicarboxamide] | 0.01 to 10 nM | 0.01 to 10 nM |
| CC(C)(C)c1ccc(NC(=O)N2CCn3nc(-c4cccc(F)c4)c(C(N)=O)c3C2)cc1 [Compound 63, N^5-(4-(tert-Butyl)phenyl)-2-(3-fluorophenyl)-6,7-dihydropyrazolo[1,5-a]pyrazine-3,5(4H)-dicarboxamide] | 0.01 to 10 nM | 0.01 to 10 nM |
| Cc1cc(NC(=O)N2CCn3nc(-c4cc(F)c5cn[nH]c5c4)c(C(N)=O)c3C2)ccc1C#N [Compound 325, N^5-(4-Cyano-3-methylphenyl)-2-(4-fluoro-1H-indazol-6-yl)-6,7-dihydropyrazolo[1,5-a]pyrazine-3,5(4H)-dicarboxamide] | 0.01 to 10 nM | 0.01 to 10 nM |
| COc1ccc(NC(=O)N2CCn3nc(-c4cccc(F)c4)c(C(N)=O)c3C2)cc1Cl [Compound 67, N^5-(3-Chloro-4-methoxyphenyl)-2-(3-fluorophenyl)-6,7-dihydropyrazolo[1,5-a]pyrazine-3,5(4H)-dicarboxamide] | 0.01 to 10 nM | 0.01 to 10 nM |
| COc1cc(Cl)cc(-c2nn3c(c2C(N)=O)CN(C(=O)NC(C)(C)C)CC3)c1 [Compound 152, N^5-(tert-Butyl)-2-(3-chloro-5-methoxyphenyl)-6,7-dihydropyrazolo[1,5-a]pyrazine-3,5(4H)-dicarboxamide] | 0.01 to 10 nM | 0.01 to 10 nM |
| NC(=O)c1c(-c2ccc(Cl)c(Cl)c2)nn2c1CN(C(=O)Nc1cc(F)cc(C(F)(F)F)c1)CC2 [Compound 212, 2-(3,4-Dichlorophenyl)-N^5-(3-fluoro-5-(trifluoromethyl)phenyl)-6,7-dihydropyrazolo [1,5-a]pyrazine-3,5(4H)-dicarboxamide] | 0.01 to 10 nM | 0.01 to 10 nM |
| Cc1nc2cc(-c3nn4c(c3C(N)=O)CN(C(=O)Nc3ccc(C#N)c(C)c3)CC4)cc(Cl)c2o1 [Compound 313, 2-(7-Chloro-2-methylbenzo[d]oxazol-5-yl)-N^5-(4-cyano-3-methylphenyl)-6,7-dihydropyrazolo[1,5-a]pyrazine-3,5(4H)-dicarboxamide] | 0.01 to 10 nM | 0.01 to 10 nM |
| N#Cc1ccc(NC(=O)N2CCn3nc(-c4cc(F)cc(Cl)c4)c(C(N)=O)c3C2)cc1F [Compound 215, 2-(3-Chloro-5-fluorophenyl)-N^5-(4-cyano-3-fluorophenyl)-6,7-dihydropyrazolo[1,5-a]pyrazine-3,5(4H)-dicarboxamide] | 0.01 to 10 nM | 0.01 to 10 nM |
| NC(=O)c1c(-c2ccc(Cl)c(Cl)c2)nn2c1CN(C(=O)Nc1ccc(OC(F)(F)F)cc1)CC2 [Compound 213, 2-(3,4-Dichlorophenyl)-N^5-(4-(trifluoromethoxy)phenyl)-6,7-dihydropyrazolo[1,5-a] pyrazine-3,5(4H)-dicarboxamide] | 0.01 to 10 nM | 0.01 to 10 nM |

— patent publication US9598423B2 (BRISTOL-MYERS SQUIBB COMPANY, priority 2013, dated 2017)
